In patent US20230142090A1 (priority 2020, published 2023):
Entries after “also recorded” stand apart in the source; their conditions may differ. Where two headings read alike, the source gives them in different places.

Columns and labels:
[1] = tested on: RtsA; format: binding, Salmonella
[2] = tested on: Salmonella; format: cell-based
[3] = target: T1, HilC (Salmonella typhimurium, UniProt P0CL09); format: binding
T1 sequence (P0CL09 1-295): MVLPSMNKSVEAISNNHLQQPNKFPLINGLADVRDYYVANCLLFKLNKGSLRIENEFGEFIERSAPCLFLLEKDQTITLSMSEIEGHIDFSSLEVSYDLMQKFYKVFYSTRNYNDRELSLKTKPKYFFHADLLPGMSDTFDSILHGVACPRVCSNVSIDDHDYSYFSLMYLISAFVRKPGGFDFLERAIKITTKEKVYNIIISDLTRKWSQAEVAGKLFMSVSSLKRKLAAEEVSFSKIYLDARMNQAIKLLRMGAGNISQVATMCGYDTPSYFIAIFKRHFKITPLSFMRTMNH

[4] = tested on: HEp-2 cell invasion by Salmonella; format: cell-based
[5] = target: T2, HilD (Salmonella typhimurium, UniProt P0CL08); format: binding
T2 construct: 6×His-NusA (followed by HRV 3C protease site) (N, cleaved yes); made in house; host or cells: E. coli BL21(DE3)
T2 sequence (P0CL08 1-309): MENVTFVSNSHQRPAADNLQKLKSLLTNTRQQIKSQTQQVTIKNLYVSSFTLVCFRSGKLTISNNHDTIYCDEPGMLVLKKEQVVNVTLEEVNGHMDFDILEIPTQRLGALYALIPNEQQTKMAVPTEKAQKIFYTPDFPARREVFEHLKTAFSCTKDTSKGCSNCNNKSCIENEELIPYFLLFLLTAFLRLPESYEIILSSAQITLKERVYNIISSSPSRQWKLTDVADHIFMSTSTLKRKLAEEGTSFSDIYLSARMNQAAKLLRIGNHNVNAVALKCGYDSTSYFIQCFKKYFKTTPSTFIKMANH

[6] = target: HilD (Salmonella typhimurium, UniProt P0CL08); format: cell-based
[7] = tested on: cholera toxin; format: cell-based, V. cholerae Haiti and N16961
[8] = tested on: hilA expression; format: cell-based
[9] = tested on: cholera toxin genes ctxAB; format: cell-based, Vibrio cholerae C6706 EI Tor strain
[10] = tested on: sopB expression; format: cell-based
[11] = tested on: Salmonella SPI1 expression (sicA-GFP); parameters: species or system C57BL/6 mice; settings: mouse, in vivo
[12] = tested on: toxin co-regulated pili gene (tcpA); format: cell-based, Vibrio cholerae
[13] = hilC and rtsA deleted, hilD under tetracycline-inducible promoter, 20 μM (FIG. 4C)

## CCCCCCCCCCCCC/C=C\C(=O)O [c2-HDA, (Z)-hexadec-2-enoic acid]
[1]
  binding of RtsA to the hilA promoter: preventing binding; also recorded: partially inhibited binding; also recorded: prevented binding; also recorded: did so partially
[2]
  effect on bacterial growth: did not impair bacterial growth
[3]
  binding of HilC to the hilA promoter: preventing binding; also recorded: partially inhibited binding; also recorded: prevented binding; also recorded: did so partially
[4]
  decrease of invasion of HEp-2 cells compared to untreated cultures: 78%
[5]
  binding of HilD to the hilA promoter: prevented the binding; also recorded: partially inhibited binding; also recorded: completely inhibited; also recorded: did so partially
[6]
  effect on HilD stability in the absence of Lon: no effect on its stability
[7]
  cholera toxin secretion / toxin amounts in the culture media: reduced; also recorded: reduces cholera toxin secretion
[8]
  inhibition of hilA expression: 39%
  less potent in repressing hilA compared to the wild type: 39%
  reduction of hilA expression in the presence of only hilC: 20 fold
  reduction of hilA expression in the presence of only rtsA: 13 fold
  reduction of hilA expression, chain length comparison: 159 fold
  repression of hilA expression in the absence of Lon: continued to repress hilA expression
  repression of hilA in the presence of hilD only: 78 fold
[9]
  concentrations at which effects on virulence gene expression were apparent: ≥ 5 µM
  repression of ctxAB: 20 fold
  repression of virulence gene expression compared to Virstatin: repressed much more efficiently
[10]
  inhibition of sopB expression in Δlon and ΔhilE mutants: inhibited sopB expression in these mutants to the level observed in the wild type strain
  repression of sopB: 11 fold
  repression of sopB expression: 68 fold
[11]
  reduction of the percentage of bacteria expressing SPI1 in the caecum: 2 fold
[12]
  expression of tcpA: represses expression

## CCCCCCC/C=C\C(=O)O [cis-2-decenoic acid, (Z)-dec-2-enoic acid]
[8]; FIG. 1F
  reduction of hilA expression, chain length comparison: 28%

## CCCCCCCCC/C=C\C(=O)O [cis-2-dodecenoic acid, (Z)-dodec-2-enoic acid]
[8]
  potency in repressing invasion genes relative to c2-HDA: less potent in repressing invasion genes than c2-HDA
[8]; FIG. 1F
  reduction of hilA expression, chain length comparison: 3 fold

## CCCCCCCCCCCCCCCCC/C=C\C(=O)OC [cis-2-eicosenoic acid methyl ester]
[8]
  repression of hilA expression by methyl ester: not to significantly repress hilA expression

## CCCCCCCCCCCCCCCCC/C=C\C(=O)O [cis-2-eicosenoic acid, (Z)-icos-2-enoic acid]
[8]; FIG. 1F
  reduction of hilA expression, chain length comparison: 10 fold
[8]; [13]
  repression of hilA in the presence of hilD only: 3 fold

## CCCCCCCCCCCCC/C=C\C(=O)OC [cis-2-hexadecenoic acid methyl ester]
[8]
  repression of hilA expression by methyl ester: not to significantly repress hilA expression

## CC(C)CCCCCCC/C=C\C(=O)O [cis-11-methyl-2-dodecenoic acid]
[8]
  potency in repressing invasion genes relative to c2-HDA: less potent in repressing invasion genes than c2-HDA

## CCCCCCCC/C=C\CCCCCCCC(=O)O [oleic acid, cis-9-octadecenoic acid, reference compound]
[4]; overnight growth with 20 μM compound
  decrease of invasion of HEp-2 cells compared to untreated cultures: 70%
[8]; 5 μM, hilA::luxCDABE, wild type (FIG. 1A)
  repression of hilA expression: 1.3 fold
[8]; [13]
  repression of hilA in the presence of hilD only: 1.2 fold
[9]
  repression of ctxAB: 1.3 fold

## CCCCCCCCCCCCCCCC(=O)O [palmitic acid, reference compound]
[9]
  repression of ctxAB: no repressive effects

## CCCCCCCCCCCCC/C=C/C(=O)O [trans-2-hexadecenoic acid, reference compound]
[8]; 20 μM fatty acids (FIG. 1A)
  fold less potent in repressing hilA than the cis-isomer: 31 fold

## O=C(O)CCCN1C(=O)c2cccc3cccc(c23)C1=O [virstatin, reference compound]
[9]
  repression of ctxAB: 1.2 fold
